These are literature values, as cited in patent US20190240144A1, “EFFERVESCENT DEFERIPRONE TABLET” (priority 2016, published 2019).

Structures are written as SMILES.

The conditions of this series: in vivo.

With `CC(=O)N(O)CCCCCNC(=O)CCC(=O)N(O)CCCCCNC(=O)CCC(=O)N(O)CCCCCN` [deferoxamine], the “half-life (t1/2)” value is recorded as 5-10 minus.
